In US4571405A, “Anti-allergic chromone- or thiochromone-5-oxamic acid derivatives, compositions, and method of use therefor” (Miles Laboratories, Inc., priority 1984, dated 1986):
Values joined by “and” are separate entries in the source; they are usually repeats but may differ in a detail not shown here. Identical values can stand only once. Like-named read-outs stand apart in the source and are kept apart here.

Experiments:
[1] = test system: passive cutaneous anaphylaxis reaction (PCA reaction); assay: Passive cutaneous anaphylaxis reaction (PCA reaction), intravenous, rats; assay type: in vivo, Male Lister-Hooded rats; details: for ED50: Rattus norvegicus, iv
Procedure: (§1) The antiallergic activity of the compounds of the present invention was determined by a passive cutaneous anaphylaxis reaction (PCA reaction) which was conducted as described in Life Sciences, 1, p. 465 (1963) and Immunology, 12, p. 113 (1967) both of which are incorporated herein by reference. Male Lister-Hooded rats were depilated and injected intradermally with a dilution of rat serum containing IgE antibody against ovalbumin. Twenty-four hours later the rats were challenged with an intravenous injection of the antigen (ovalbumin) and a blue indicator dye. The intensity of the passive cutaneous anaphylactic reaction was determined by observing the size of discrete blue sites (from the indicator) on the backs of the rats. Simultaneous with the challenge, one group of the rats was injected (intravenously) with various concentrations of test compounds (i.e., compounds of formula I), in order to determine the 50 percent inhibitory concentration (IC50) for each of said compounds tested. The other group of rats was administered intravenous sodium cromoglycate (SCG), a known antiallergic agent and thus served as a positive control. The results of this test are set forth in Table 1 where the IC50 for the test compounds and SCG are expressed irn micromoles per kiligram of body weight.

[2] = test system: PCA reaction; assay: Oral activity in PCA reaction (intragastric dose), rats; assay type: in vivo, Male Lister-Hooded rats; details: 30 mg/kg intragastrically, thirty minutes prior to antigen challenge, relative to control; for inhibition at 30 mg/kg: Rattus norvegicus, po, read-out: Percent Inhibition of PCA Reaction
Procedure: as §1
Following substantially the same technique as described above, the oral activity of various test compounds (i.e., compounds of formula I) was determined. Thirty minutes prior to the antigen challenge described above, a dose of 30 mg/kg of one of the test compounds was administered intragastrically and the percent inhibition of the percutaneous anaphylactic reaction was determined (as compared to control animals where no test compound was administered). The results of this test are set forth in Table 2 and are expressed as percent inhibition of anaphylaxis relative to control.

[3] = test system: mast cells; assay: Inhibition of antigen-induced histamine (spasmogen) release from passively sensitized peritoneal mast cells; assay type: cell-based, rats
Procedure: Peritoneal mast cells passively sensitized to antigen (dinitrophenyl-ovalbumin) 24 hours previously were obtained by lavage. Pools of cells were prepared from ten or more rats and aliquots (100 μl) were dispensed into polyethylene tubes. To each tube was added one of the test compounds at a concentration shown in Table 3 together with a constant dose (1 μg) of antigen (dinitrophenyl-bovine serum albumin). Each treatment was repeated in at least three tubes. All of the tubes were incubated at 37° C. for 10 minutes. The mast cells were sedimented by centrifugation and the supernatant fluid removed. The concentration of histamine released as a result of the addition of antigen was determined fluorimetrically and comparisons made with the concentration of histamine released in the absence of drug using the formula: [formula] where d=histamine release in presence of test compound,
a=histamine release in presence of antigen along
s=histamine release in presence of saline or drug vehicle (i.e., control).
The results of this test are set forth in Table 3 and are expressed as a percent inhibition of spasmogen release for each concentration (in moles) of the test compound utilized in the above-described procedure.

[4] = simultaneous with antigen (ovalbumin) challenge, per kilogram of body weight, read-out: INHIBITION OF PCA REACTION IC50, Compound of Example No.

Row | SMILES | inhibition at 30 mg/kg [2] [%] | ED50 [1, 4] [µmol/kg] | Percent Inhibition of Mast Cell Histamine Release ([3]; 10^-2 (moles)) [%] | Percent Inhibition of Mast Cell Histamine Release ([3]; 10^-3 (moles)) [%] | Percent Inhibition of Mast Cell Histamine Release ([3]; 10^-4 (moles)) [%] | Percent Inhibition of Mast Cell Histamine Release ([3]; 10^-5 (moles)) [%] | Percent Inhibition of Mast Cell Histamine Release ([3]; 10^-6 (moles)) [%] | other results
1 | O=C(O)C(=O)Nc1cccc2oc3c(c(=O)c12)CCCC3 [2,3cyclohexenochromone-5-oxamic acid, 2,3-cyclohexenochromone-5-oxamic acid] | – | – | – | – | – | – | – | INHIBITION OF PCA REACTION IC50, Compound of Example No. ([1]; intravenous, simultaneous with antigen (ovalbumin) challenge, per kilogram of body weight, listed as 2,3cyclohexeneochromone-5-oxamic acid): 11.2 micromoles/kilogram
2 | Cc1oc2cccc(NC(=O)C(=O)O)c2c(=O)c1C [IV, Sodium 2,3-dimethylchromone-5-oxamate] | 39 | 5 | – | – | – | – | – | –
3 | O=C(O)c1cc(=O)c2c(OCC(O)COc3cccc4oc(C(=O)O)cc(=O)c34)cccc2o1 [SCG, sodium cromoglycate, reference compound] | – | – | – | – | – | – | – | ED50 ([1]; intravenous sodium cromoglycate positive control, run alongside each test compound, read-out: INHIBITION OF PCA REACTION IC50, SCG): 3.6 µmol/kg; INHIBITION OF PCA REACTION IC50, SCG ([1]; intravenous sodium cromoglycate positive control, run alongside each test compound): 2.1 micromoles/kilogram and 1.8 micromoles/kilogram and 2.4 micromoles/kilogram
4 | CC1(C)CCc2oc3cccc(NC(=O)C(=O)O)c3c(=O)c2C1 [III, Sodium 2,3-(4',4'-dimethylcyclohexeno)chromone-5-oxamate] | 60 | 9.6 | 92.9 | 95.1 | 57.6 | 10.6 | 8.2 | –
5 | O=C(O)C(=O)Nc1cccc2oc3c(c(=O)c12)CCCC3 [Example I, Sodium 2,3-cyclohexenochromone-5-oxamate] | 27 | 10.4 | 85.7 | 78.6 | 10.9 | 12.6 | 12.0 | –
6 | CCCc1c2c(c(O)c3c(=O)cc(C(=O)O)oc13)CCCC2 [proxicromil, reference compound] | – | – | – | – | – | – | – | Percent Inhibition of PCA Reaction [2]: ten
7 | CC1(C)CCC2=C(C1)C(=O)c1c(NC(=O)C(=O)O)cccc1S2(=O)=O [Example VI, Sodium 2,3-(4',4'-dimethylcyclohexeno)thiochromone-5-oxamate-1,1-dioxide] | 27 | 16.5 | 95.1 | 86.9 | 44.1 | 3.7 | 4.4 | –
8 | CCC1CCc2oc3cccc(NC(=O)C(=O)O)c3c(=O)c2C1 (stereo not shown) [II, Sodium 2,3-(4'-ethylcyclohexeno)chromone-5-oxamate] | 46 | 15.5 | – | – | – | – | – | –
9 | CC1(C)CCc2sc3cccc(NC(=O)C(=O)O)c3c(=O)c2C1 [Example V, Sodium 2,3-(4',4'-dimethylcyclohexeno)thiochromone-5-oxamate] | 14 | 10 | 96.7 | 74.8 | 40.8 | 2.7 | 38.7 | –
10 | O=C1c2ccccc2S(=O)(=O)c2cc(-c3nnn[nH]3)ccc21 [doxantrazole, reference compound] | – | – | – | – | – | – | – | Percent Inhibition of PCA Reaction [2]: ten
